Assay results reported in ChEMBL document CHEMBL1201862, “PubChem BioAssay data set” (2004).
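Dose response: 5 concentrations. Exposure: 48 h. Format: 96-well plates. Endpoint: linear interpolation; highest concentration if not reached. GI50 is the concentration that inhibits growth by half.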 Calls of active or inactive are those of the source. No stated cut-off is given here; in the data, active = GI50 up to about 1.1 µM and inactive = higher.

Tests used:
Experiment in all cases: NCI anticancer screen, dose series, 48 h
BT-549 = system: BT-549
SR = system: SR
MDA-MB-435 = system: MDA-MB-435
EKVX = system: EKVX
MCF7 = system: MCF7
MDA-MB-231 = system: MDA-MB-231
SNB-19 = system: SNB-19
M14 = system: M14
786-0 = system: 786-0
SK-MEL-28 = system: SK-MEL-28
OVCAR-3 = system: OVCAR-3
NCI-H522 = system: NCI-H522
PC-3 = system: PC-3
HCC 2998 = system: HCC 2998
COLO 205 = system: COLO 205
UACC-62 = system: UACC-62
ACHN = system: ACHN
LOX IMVI = system: LOX IMVI
SN12C = system: SN12C
SF-539 = system: SF-539

Compound: CC(C)(C(=O)NN)c1ccccc1
- GI50 (BT-549): > 100 µM (inactive)
- GI50 (SR): > 100 µM (inactive)
- GI50 (MDA-MB-435): 86.5 µM (inactive)
- GI50 (EKVX): 34.6 µM (inactive)
- GI50 (MCF7): > 100 µM (inactive)
- GI50 (MDA-MB-231): > 100 µM (inactive)
- GI50 (SNB-19): > 100 µM (inactive)
- GI50 (M14): > 100 µM (inactive)
- GI50 (786-0): > 100 µM (inactive)
- GI50 (SK-MEL-28): > 100 µM (inactive)
- GI50 (OVCAR-3): > 100 µM (inactive)
- GI50 (NCI-H522): 56.2 µM (inactive)
- GI50 (PC-3): > 100 µM (inactive)
- GI50 (HCC 2998): > 100 µM (inactive)
- GI50 (COLO 205): > 100 µM (inactive)
- GI50 (UACC-62): 19.3 µM (inactive)
- GI50 (ACHN): > 100 µM (inactive)
- GI50 (LOX IMVI): 7.91 µM (inactive)
- GI50 (SN12C): > 100 µM (inactive)
- GI50 (SF-539): 42.2 µM (inactive)

Compound: Nc1nc(Cl)c(N)c(NCC2(CO)CCC2)n1
- GI50 (BT-549): > 100 µM (inactive)
- GI50 (SR): > 100 µM (inactive)
- GI50 (MDA-MB-435): > 100 µM (inactive)
- GI50 (EKVX): > 100 µM (inactive)
- GI50 (MCF7): > 100 µM (inactive)
- GI50 (MDA-MB-231): > 100 µM (inactive)
- GI50 (SNB-19): > 100 µM (inactive)
- GI50 (M14): > 100 µM (inactive)
- GI50 (786-0): > 100 µM (inactive)
- GI50 (SK-MEL-28): > 100 µM (inactive)
- GI50 (OVCAR-3): > 100 µM (inactive)
- GI50 (NCI-H522): 69.7 µM (inactive)
- GI50 (PC-3): > 100 µM (inactive)
- GI50 (HCC 2998): > 100 µM (inactive)
- GI50 (COLO 205): > 100 µM (inactive)
- GI50 (UACC-62): > 100 µM (inactive)
- GI50 (ACHN): > 100 µM (inactive)
- GI50 (LOX IMVI): > 100 µM (inactive)
- GI50 (SN12C): > 100 µM (inactive)
- GI50 (SF-539): > 100 µM (inactive)

Compound: CC12CCC(C(Nc3ccccn3)C1=O)C2(C)C (stereo not given)
- GI50 (BT-549): > 100 µM (inactive)
- GI50 (SR): > 100 µM (inactive)
- GI50 (MDA-MB-435): > 100 µM (inactive)
- GI50 (EKVX): > 100 µM (inactive)
- GI50 (MCF7): > 100 µM (inactive)
- GI50 (MDA-MB-231): > 100 µM (inactive)
- GI50 (SNB-19): > 100 µM (inactive)
- GI50 (M14): > 100 µM (inactive)
- GI50 (786-0): > 100 µM (inactive)
- GI50 (SK-MEL-28): > 100 µM (inactive)
- GI50 (OVCAR-3): > 100 µM (inactive)
- GI50 (NCI-H522): > 100 µM (inactive)
- GI50 (PC-3): > 100 µM (inactive)
- GI50 (HCC 2998): 29.9 µM (inactive)
- GI50 (COLO 205): > 100 µM (inactive)
- GI50 (UACC-62): > 100 µM (inactive)
- GI50 (ACHN): > 100 µM (inactive)
- GI50 (LOX IMVI): > 100 µM (inactive)
- GI50 (SN12C): > 100 µM (inactive)
- GI50 (SF-539): > 100 µM (inactive)

Compound: C/C(=N\N=C(/[SeH])N1CC2CCC(CC2)C1)c1ccccn1
- GI50 (BT-549): 0.182 µM (active)
- GI50 (SR): 0.0223 µM (active)
- GI50 (MDA-MB-435): 0.119 µM (active)
- GI50 (EKVX): 0.0914 µM (active)
- GI50 (MCF7): < 0.01 µM (active)
- GI50 (MDA-MB-231): 0.115 µM (active)
- GI50 (SNB-19): 0.2 µM (active)
- GI50 (M14): 0.0255 µM (active)
- GI50 (786-0): 0.211 µM (active)
- GI50 (SK-MEL-28): 0.0955 µM (active)
- GI50 (OVCAR-3): 0.0222 µM (active)
- GI50 (NCI-H522): 0.161 µM (active)
- GI50 (PC-3): 0.0647 µM (active)
- GI50 (HCC 2998): 0.243 µM (active)
- GI50 (COLO 205): < 0.01 µM (active)
- GI50 (UACC-62): 0.0596 µM (active)
- GI50 (ACHN): 0.215 µM (active)
- GI50 (LOX IMVI): 0.0244 µM (active)
- GI50 (SN12C): 0.228 µM (active)
- GI50 (SF-539): 0.251 µM (active)

Compound: Cc1nn(C(=O)c2ccc(Cl)cc2)c2c1C(/C=C/c1ccccc1)SC(=N)N2 (stereo not given)
- GI50 (BT-549): > 10 µM (inactive)
- GI50 (SR): > 10 µM (inactive)
- GI50 (MDA-MB-435): > 10 µM (inactive)
- GI50 (EKVX): > 10 µM (inactive)
- GI50 (MCF7): > 10 µM (inactive)
- GI50 (MDA-MB-231): > 10 µM (inactive)
- GI50 (SNB-19): > 10 µM (inactive)
- GI50 (M14): > 10 µM (inactive)
- GI50 (786-0): > 10 µM (inactive)
- GI50 (SK-MEL-28): > 10 µM (inactive)
- GI50 (OVCAR-3): > 10 µM (inactive)
- GI50 (NCI-H522): > 10 µM (inactive)
- GI50 (PC-3): > 10 µM (inactive)
- GI50 (HCC 2998): > 10 µM (inactive)
- GI50 (COLO 205): > 10 µM (inactive)
- GI50 (UACC-62): > 10 µM (inactive)
- GI50 (ACHN): > 10 µM (inactive)
- GI50 (LOX IMVI): > 10 µM (inactive)
- GI50 (SN12C): > 10 µM (inactive)
- GI50 (SF-539): > 10 µM (inactive)

Compound: CN(C)CCCNC(=O)c1cc(NS(=O)(=O)c2ccc3c(c2)C(=O)c2ccccc2C3=O)cn1C
- GI50 (BT-549): 24.5 µM (inactive)
- GI50 (SR): 21.9 µM (inactive)
- GI50 (MDA-MB-435): 25.4 µM (inactive)
- GI50 (EKVX): > 100 µM (inactive)
- GI50 (MCF7): 19.5 µM (inactive)
- GI50 (MDA-MB-231): 24.8 µM (inactive)
- GI50 (SNB-19): 12.8 µM (inactive)
- GI50 (M14): 22.3 µM (inactive)
- GI50 (786-0): 28.7 µM (inactive)
- GI50 (SK-MEL-28): 27.1 µM (inactive)
- GI50 (OVCAR-3): 13.5 µM (inactive)
- GI50 (NCI-H522): 22.6 µM (inactive)
- GI50 (PC-3): 33.3 µM (inactive)
- GI50 (HCC 2998): 24.5 µM (inactive)
- GI50 (COLO 205): 23.6 µM (inactive)
- GI50 (UACC-62): 20.8 µM (inactive)
- GI50 (ACHN): 14.6 µM (inactive)
- GI50 (LOX IMVI): 13.8 µM (inactive)
- GI50 (SN12C): 29.1 µM (inactive)
- GI50 (SF-539): 42.8 µM (inactive)
